# Experimental data published in patent US11026932B2, “Medicinal composition for preventing or treating inflammatory respiratory disease” (NATIONAL UNIVERSITY CORPORATION OKAYAMA UNIVERSITY, priority 2015, dated 2021).
# Tests used:
# [1] = compared to a known RXR full agonist; cited from earlier work
# [2] = tested on: bronchial asthma model mice; assay: Bronchial asthma model mice (OVA sensitization and inhaled OVA exposure), evaluation of drug efficacy; assay type: in vivo, female BALB/c mice; conditions: compared with the untreated group
# Description: <Preparation of Bronchial Asthma Mice and Evaluation of Drug Efficacy>
# Bronchial asthma mice were prepared and used for evaluation of drug efficacy in accordance with the following procedures.
# Female BALB/c mice were systemically sensitized by intraperitoneal administration of ovalbumin (OVA) ([…] of OVA emulsified in 2.25 mg aluminum hydroxide in a total volume of 100 μL) on Day 0 and Day 14, and then was exposed to inhaled OVA by an ultrasonic nebulizer (for 20 min, 3 days: Days 28 to 30), to induce asthma reaction.
# From Day 25, the mice were fed with a food containing an RXR agonist (NEt-4IB). On Day 32, the mice underwent tracheotomy under anesthesia by pentobarbital administration, followed by insertion of an endotracheal tube. After the tube was connected to a respiratory function measuring equipment, an airway hyperreactivity (airway resistance) was determined for evaluating airway constriction.
# Forty eight hours after the last OVA inhalation exposure, airway hyperreactivity in the mice with an endotracheal tube was measured using a respiratory function measuring equipment (Flexivent, SIREQ Inc.). Here, airway hyperreactivity was induced by inhalation of methacholine.
# After the procedure 2, the mice were euthanized by exsanguination. After bronchoalveolar lavage, a lung tissue was removed for evaluating an airway tissue.
# Also, for a group fed with a common food as an untreated group, an asthma reaction was induced in the same way for determination of airway hyperreactivity and evaluation of airway inflammation.
# Two groups which were not sensitized by an OVA and only exposed to inhaled OVA as non-asthma control groups (an RXR agonist medicated feed group and a common feed group) were also evaluated for airway hyperreactivity and airway inflammation in the same way.
# The data obtained was analyzed by Anova significance test, in which p<0.01 and p<0.05 to an untreated non-asthma group were indicated by “**” and “*”, respectively. Furthermore, P<0.05 to an untreated asthma group was indicated by “#”.
# emphysema model mice = assay: Emphysema model mice (intratracheal swine pancreatic elastase), evaluation of drug efficacy; assay type: in vivo, female BALB/c mice
# Description: <Preparation of Emphysema Mice and Evaluation of Drug Efficacy>
# Emphysema mice were prepared in accordance with the following procedures described and used for evaluation of drug efficacy.
# Under anesthesia by pentobarbital or isoflurane administration, female BALB/c mice were intratracheally administered with swine pancreatic elastase to prepare (day 0) emphysema models.
# Control mice were fed with a food containing bexarotene as an existing RXR full agonist.
# On Days 4 and 14, the mice underwent tracheotomy again under anesthesia by pentobarbital or xylazine-ketamine administration, followed by insertion of an endotracheal tube, and static lung compliance was measured using a respiratory function measuring equipment ([…], SIREQ Inc.) for evaluating emphysematous alteration. Static lung compliance is an indication of extensibility of a lung tissue, and static lung compliance is increased in emphysema which is a disease associated with tissue destruction in an alveolar region.
# After the procedure 3, the mice were euthanized by exsanguination. After bronchoalveolar lavage, a lung tissue was removed for evaluating emphysema.
# The data obtained was analyzed by Anova significance test, in which p<0.05 to an untreated non-emphysema group was indicated by “*”. Furthermore, P<0.05 to an untreated emphysema group was indicated by “#”.
# [3] = emphysema model mice, 4 days after elastase administration, compared with drug non-administration group
Compound,increase in triglyceride [1],IL-5 in supernatant of bronchoalveolar lavage fluid ([2]; ELISA),IL-13 in supernatant of bronchoalveolar lavage fluid ([2]; ELISA),"inflammatory cell infiltration in a local site of the airway, histopathological investigation of the lung tissue ([2]; HE staining)",eosinophil number in cell fraction of bronchoalveolar lavage fluid [2],lymphocyte number in cell fraction of bronchoalveolar lavage fluid [2],total cell number in cell fraction of bronchoalveolar lavage fluid [2],"static lung compliance (emphysema model mice; emphysema model mice fed food containing compound from Day -4, measured Days 4 and 14, compared with the untreated group)",macrophages in cell fraction of bronchoalveolar lavage fluid (emphysema model mice; [3]),total cell number in cell fraction of bronchoalveolar lavage fluid (emphysema model mice; [3]),"neutrophil number in cell fraction of bronchoalveolar lavage fluid (emphysema model mice; emphysema model mice, 4 days after elastase administration, compared with the untreated group)","effect on bronchoalveolar lavage cell numbers compared with the RXR full agonist bexarotene (emphysema model mice; emphysema model mice, 4 days after elastase administration, total cell number and macrophages)","average interalveolar distance in lung tissue (emphysematous alteration) (emphysema model mice; emphysema model mice, formalin-fixed, HE-stained lung tissue, compared with the untreated group)","anti-inflammatory effect (emphysema model mice; emphysema model or bronchial asthma model, repeated oral administration (summary statement))"
CCN(c1ccc(C(C)C)c(OCC(C)C)c1)c1ccc(C(=O)O)cn1 [NEt-3IB],reduces increase in triglyceride,,,,,,,,,,,,,
CCN(c1ccc(OCC(C)C)c(C(C)C)c1)c1ccc(C(=O)O)cn1 [NEt-4IB],,inhibition,inhibition,improvement in inflammatory cell infiltration,reduction,reduction,reduction,significant improvement,significantly reduced,significantly reduced,reduction,remarkably higher,improvement in emphysematous alteration,significant anti-inflammatory effect
